Converted amounts (≈) assume the structure as drawn. Read-outs that look alike come from different tables or passages of the source.
What was measured:
M. tuberculosis InhA [1] = target: T1, M. tuberculosis InhA (Mycobacterium tuberculosis, UniProt P9WGR1); experiment: InhA in vitro inhibition assay; format: biochemical
M. tuberculosis H37Rv [2] = experiment: microbe, parasite or virus in culture; format: cell-based, Mycobacterium tuberculosis; details: Mycobacterium tuberculosis, H37RV; whole-cell M. tuberculosis
[3] = system: intracellular M. tuberculosis in THP-1 cells; experiment: microbe, parasite or virus in culture; format: cell-based; details: Mycobacterium tuberculosis
in vitro [4] = format: cell-based; details: human; read-out: HepG2 cytotoxicity IC50
Protocol: HepG2 human liver cells (ATCC HB 8065) were propagated in DMEM containing either 25 mM glucose or 10 mM galactose plus 10% vol/vol FBS, 1 mM sodium pyruvate, 2 mM Corning glutagro, 100 U/ml penicillin, and 100 μg/ml streptomycin. The cells were seeded in 384-well plates at 1,800 cells per well and incubated in a humidified incubator at 37°C, 5% CO2. Compounds were solubilized in DMSO and assayed using a 10-point threefold serial dilution. Compounds were added 24 h post cell seeding to a final assay concentration of 1% DMSO and highest compound concentration of 100 μM. The cells were incubated for 72 h and viability measured using CellTiter-Glo reagent (Promega) and reading RLU. Growth inhibition curves were fitted using the Levenberg–Marquardt algorithm. The IC50 was defined as the compound concentration that produced 50% of the inhibitory response against HepG2 cells.

M. tuberculosis InhA [5] = target: T1, M. tuberculosis InhA; experiment: biochemical; format: binding
M. tuberculosis H37Rv [6] = experiment: Kill kinetics under replicating conditions; format: cell-based, Mycobacterium tuberculosis
[7] = system: M. tuberculosis Erdman TMCC 107; experiment: microbe, parasite or virus in culture; format: cell-based; details: Mycobacterium tuberculosis, read-out: potency (MIC) against M. tuberculosis Erdman TMCC 107
M. tuberculosis Erdman [8] = format: in vivo, Mycobacterium tuberculosis; details: for reduction in M. tuberculosis lung burdens / reduction in M. tuberculosis spleen burdens: 9-d treatment; for Mean ± SEM Log10 CFU: dose escalation study (Table S4), day 22
M. tuberculosis Erdman [9] = format: in vivo, Mycobacterium tuberculosis; details: 100 mg/kg
[10] = for Ratio Plasma AUC0-last / Dose / Ratio Plasma Cmax/Dose: C57Bl/6 mice
[11] = human serum
[12] = mouse plasma
in vivo = details: female; for AUC(0-t): AUClast
in vitro [13] = details: human
[14] = BALB/c, mouse, po, 10 mg/kg, BALB/c (infected) mice, oral 10 mg/kg QD-3 wk, plasma
[15] = BALB/c, mouse, po, 50 mg/kg, BALB/c (infected) mice, oral 50 mg/kg QD-3 wk, plasma
[16] = C57BL/6, mouse, po, 10 mg/kg, C57Bl/6 mice, oral 10 mg/kg QD-4 days, plasma
[17] = C57BL/6, mouse, po, 10 mg/kg, C57Bl/6 mice, oral 10 mg/kg QD-4 days, lung
[18] = C57BL/6, mouse, po, 25 mg/kg, C57Bl/6 mice, oral 25 mg/kg QD-4 days, plasma
[19] = C57BL/6, mouse, po, 25 mg/kg, C57Bl/6 mice, oral 25 mg/kg QD-4 days, lung
[20] = C57BL/6, mouse, po, 50 mg/kg, C57Bl/6 mice, oral 50 mg/kg QD-4 days, plasma
[21] = C57BL/6, mouse, po, 50 mg/kg, C57Bl/6 mice, oral 50 mg/kg QD-4 days, lung
[22] = CD-1, mouse, iv, 5 mg/kg, CD-1 mice, IV 5 mg/kg, single dose, plasma
[23] = CD-1, mouse, po, 10 mg/kg, CD-1 mice, oral 10 mg/kg, single dose, lung
[24] = CD-1, mouse, po, 10 mg/kg, CD-1 mice, oral 10 mg/kg, single dose, plasma

T1 sequence (P9WGR1 whole entry, looked up): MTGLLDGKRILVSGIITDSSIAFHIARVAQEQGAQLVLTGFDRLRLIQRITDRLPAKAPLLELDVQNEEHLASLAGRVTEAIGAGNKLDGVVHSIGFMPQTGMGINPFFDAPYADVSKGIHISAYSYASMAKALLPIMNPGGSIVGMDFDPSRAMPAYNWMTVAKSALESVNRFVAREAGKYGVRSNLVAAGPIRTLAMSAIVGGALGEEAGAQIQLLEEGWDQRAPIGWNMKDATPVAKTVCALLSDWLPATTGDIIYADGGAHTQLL

SMILES: CCS(=O)(=O)N1N=Cc2ccc(Oc3ccc(C(F)(F)F)cc3/C=N/O)cc2B1O [AN12855]
- IC50 (M. tuberculosis InhA [1]): 30 nM
- IC90 (M. tuberculosis H37Rv [2]): 90 ± 50 nM
- IC50 [3]: 21 ± 3 nM
- IC90 [3]: 40 ± 10 nM
- IC50 (in vitro [4]): > 100000 nM
- Kd (M. tuberculosis InhA [5]; cofactor: None): 77 nM
- N (stoichiometry of binding) (M. tuberculosis InhA [5]; cofactor: None): 0.58 ± 0.014
- ∆H (M. tuberculosis InhA [5]; cofactor: None): −17,740 ± 607 cal/mol
- ∆S (M. tuberculosis InhA [5]; cofactor: None): −27 cal/mol/deg
- binding to InhA (M. tuberculosis InhA [5]; in the presence of NADH): unable to bind
- bactericidal activity (M. tuberculosis H37Rv [6]): concentration-dependent bactericidal activity
- time to reach the limit of detection (M. tuberculosis H37Rv [6]; replicating conditions, 10× the IC90): 7 days
- MIC ([7]; with 4% human serum albumin): 2.3 µM (≈ 1.01 µg/mL)
- MIC ([7]; without human serum albumin): 0.28 µM (≈ 0.124 µg/mL)
- reduction in M. tuberculosis lung burdens (M. tuberculosis Erdman [8]; 10 mg/kg): 2.3 log10
- reduction in M. tuberculosis spleen burdens (M. tuberculosis Erdman [8]; 10 mg/kg): 2.1 log10
- reduction in M. tuberculosis lung burdens (M. tuberculosis Erdman [8]; 25 mg/kg): 2.7 log10
- reduction in M. tuberculosis spleen burdens (M. tuberculosis Erdman [8]; 25 mg/kg): 3.2 log10
- reduction in M. tuberculosis lung burdens (M. tuberculosis Erdman [8]; 50 mg/kg): 3.7 log10
- reduction in M. tuberculosis spleen burdens (M. tuberculosis Erdman [8]; 50 mg/kg): 3.6 log10
- Mean ± SEM Log10 CFU (M. tuberculosis Erdman [8]; lung, 50 mg/kg): 5.8 ± 0.05 Log10 CFU
- Mean ± SEM Log10 CFU (M. tuberculosis Erdman [8]; lung, 100 mg/kg): 5.0 ± 0.13 Log10 CFU
- Mean ± SEM Log10 CFU (M. tuberculosis Erdman [8]; lung, 200 mg/kg): 5.6 ± 0.06 Log10 CFU
- Mean ± SEM Log10 CFU (M. tuberculosis Erdman [8]; organ Lung, 50 mg/kg): 2.5 ± 0.24 Log10 CFU
- Mean ± SEM Log10 CFU (M. tuberculosis Erdman [8]; organ Lung, 100 mg/kg): 2.5 ± 0.05 Log10 CFU
- Mean ± SEM Log10 CFU (M. tuberculosis Erdman [8]; organ Lung, 200 mg/kg): 3.0 ± 0.10 Log10 CFU
- reduction in lung burdens (M. tuberculosis Erdman [9]; 2 weeks of treatment): 0.47 log10 CFU
- reduction in lung burdens (M. tuberculosis Erdman [9]; 4 weeks of treatment): 0.81 log10 CFU
- reduction in lung burdens (M. tuberculosis Erdman [9]; 8 weeks of treatment): 1.73 log10 CFU
- reduction in spleens (M. tuberculosis Erdman [9]; 8 weeks of treatment): more than three log10 reductions
- Ratio Plasma AUC0-last / Dose ([10]; oral 10 mg/kg QD-4 days): 1.8
- Ratio Plasma Cmax/Dose ([10]; oral 10 mg/kg QD-4 days): 0.58
- Ratio Plasma AUC0-last / Dose ([10]; oral 25 mg/kg QD-4 days): 1.9
- Ratio Plasma Cmax/Dose ([10]; oral 25 mg/kg QD-4 days): 0.5
- Ratio Plasma AUC0-last / Dose ([10]; oral 50 mg/kg QD-4 days): 1.6
- Ratio Plasma Cmax/Dose ([10]; oral 50 mg/kg QD-4 days): 0.3
- total lung exposure lower than plasma AUC ([10]; CD-1 mice, oral 10 mg/kg): 33%
- protein bound [11]: 88%
- protein bound [12]: 98.5%
- AUC(0-inf) (in vivo; BALB/c, mouse, po, 10 mg/kg): 29000 ng·h/mL
- half-life (in vivo; BALB/c, mouse, po, 10 mg/kg): 3.04 h
- AUC(0-t) (in vivo; [14]): 28900 ng·h/mL
- Cmax (in vivo; [14]): 8360 ng/mL
- Tmax (in vivo; [14]): 0.5 h
- AUC(0-inf) (in vivo; BALB/c, mouse, po, 50 mg/kg): 192000 ng·h/mL
- half-life (in vivo; BALB/c, mouse, po, 50 mg/kg): 2.4 h
- AUC(0-t) (in vivo; [15]): 192000 ng·h/mL
- Cmax (in vivo; [15]): 61600 ng/mL
- Tmax (in vivo; [15]): 0.5 h
- AUC(0-inf) (in vivo; C57BL/6, mouse, po, 10 mg/kg): 19700 ng·h/mL
- half-life (in vivo; C57BL/6, mouse, po, 10 mg/kg): 2.5 h
- AUC(0-t) (in vivo; [16]): 17600 ng·h/mL
- Cmax (in vivo; [17]): 584 ng/mL
- Cmax (in vivo; [16]): 5790 ng/mL
- Kp (in vivo; C57BL/6, mouse, po, 10 mg/kg, Ratio (Lung / Plasma) @ 5 hr, C57Bl/6 mice, oral 10 mg/kg QD-4 days): 0.39
- Kp (in vivo; C57BL/6, mouse, po, 10 mg/kg, Ratio (Lung / Plasma) @ 8 hr, C57Bl/6 mice, oral 10 mg/kg QD-4 days): 0.51
- Tmax (in vivo; [17]): 5 h
- Tmax (in vivo; [16]): 0.5 h
- AUC(0-inf) (in vivo; C57BL/6, mouse, po, 25 mg/kg): 59000 ng·h/mL
- half-life (in vivo; C57BL/6, mouse, po, 25 mg/kg): 3.52 h
- AUC(0-t) (in vivo; [18]): 46800 ng·h/mL
- Cmax (in vivo; [19]): 1900 ng/mL
- Cmax (in vivo; [18]): 12600 ng/mL
- Kp (in vivo; C57BL/6, mouse, po, 25 mg/kg, Ratio (Lung / Plasma) @ 5 hr, C57Bl/6 mice, oral 25 mg/kg QD-4 days): 0.48
- Kp (in vivo; C57BL/6, mouse, po, 25 mg/kg, Ratio (Lung / Plasma) @ 8 hr, C57Bl/6 mice, oral 25 mg/kg QD-4 days): 0.49
- Tmax (in vivo; [19]): 5 h
- Tmax (in vivo; [18]): 0.5 h
- AUC(0-inf) (in vivo; C57BL/6, mouse, po, 50 mg/kg): 109000 ng·h/mL
- half-life (in vivo; C57BL/6, mouse, po, 50 mg/kg): 3.76 h
- AUC(0-t) (in vivo; [20]): 82400 ng·h/mL
- Cmax (in vivo; [21]): 3500 ng/mL
- Cmax (in vivo; [20]): 14900 ng/mL
- Kp (in vivo; C57BL/6, mouse, po, 50 mg/kg, Ratio (Lung / Plasma) @ 5 hr, C57Bl/6 mice, oral 50 mg/kg QD-4 days): 0.36
- Kp (in vivo; C57BL/6, mouse, po, 50 mg/kg, Ratio (Lung / Plasma) @ 8 hr, C57Bl/6 mice, oral 50 mg/kg QD-4 days): 0.47
- Tmax (in vivo; [21]): 5 h
- Tmax (in vivo; [20]): 0.5 h
- half-life (in vivo; CD-1, mouse): 3.5 h
- AUC(0-inf) (in vivo; CD-1, mouse, iv, 5 mg/kg): 14400 ng·h/mL
- MRT inf (in vivo; CD-1, mouse, iv, 5 mg/kg): 3.64 h
- Vd (in vivo; CD-1, mouse, iv, 5 mg/kg): 1.27 L/kg
- clearance (in vivo; CD-1, mouse, iv, 5 mg/kg): 5.8 mL/min/kg
- half-life (in vivo; CD-1, mouse, iv, 5 mg/kg): 3.46 h
- AUC(0-t) (in vivo; [22]): 14300 ng·h/mL
- Cmax (in vivo; [22]): 6320 ng/mL
- AUC(0-inf) (in vivo; CD-1, mouse, po, 10 mg/kg): 15500 ng·h/mL
- bioavailability (in vivo; CD-1, mouse, po, 10 mg/kg): 53%
- half-life (in vivo; CD-1, mouse, po, 10 mg/kg): 3.27 h
- AUC(0-t) (in vivo; [23]): 10400 ng·h/mL
- AUC(0-t) (in vivo; [24]): 15400 ng·h/mL
- Cmax (in vivo; [23]): 1020 ng/mL
- Cmax (in vivo; [24]): 1740 ng/mL
- Tmax (in vivo; [23]): 4 h
- Tmax (in vivo; [24]): 0.5 h
- IC50 (in vitro [13]): > 50000 nM
